Data set [1] has as its system Ovary tumoral cell line. The data set can be described thus: In vitro cytotoxic (antimitotic) activity on tumoral cell lines, ovary. It counts as cell-based. An excerpt: (§1) Taxol and colchicine are the comparison substances.
(§2) In vitro cytotoxic activity of some novel colchicine derivatives.

In data set [2] the test system is resistant cell lines. The data set can be described thus: cells. Particulars: read-out: In vitro cytotoxic activity, IC50, Cell. resist.
Description: as §1
Formulations for the parenteral, oral, transdermal, epicutaneous administrations can be conveniently prepared.

Data set [3] concerns Lung tumoral cell line. Description: In vitro cytotoxic (antimitotic) activity on tumoral cell lines, lung. The format is cell-based.
Description: as §1, §2

The test system of data set [4] is Breast tumoral cell line. The data set can be described thus: In vitro cytotoxic (antimitotic) activity on tumoral cell lines, breast. The format is cell-based.
Description: as §1, §2

The subject of data set [5] is Colon tumoral cell line. Description: In vitro cytotoxic (antimitotic) activity on tumoral cell lines, colon. The format is cell-based.
Description: as §1, §2

Usually IC50 stands for the concentration that gives 50% inhibition. For the compound `COc1cc2c(c(OC)c1OC)-c1ccc(OC)c(=O)cc1[C@@H](NC(C)=O)CC2` [Colchicine, colchicine], the IC50 in data set [1] came out at 5.3 nM; in data set [2], 112 nM; in data set [3], 16 nM; in data set [4] it was 4.4 nM; in data set [5], 3.9 nM.

Consider `COc1c(OC(C)C)cc2c(c1OC)-c1ccc(SC)c(=O)cc1[C@@H](NC(=O)C(F)(F)F)CC2` [Compound IIZ, N-desacetyl-N-trifluoroacetyl-3-O-demethyl-3-O-isopropyl-thiocolchicine], for which the IC50 in data set [1] turned out to be 9.4 nM; in data set [2] it was 11 nM; in data set [3], 19 nM; in data set [4], 5 nM; in data set [5], 1.8 nM.

Regarding `COc1cc2c(c(OC)c1OC)-c1ccc(SC)c(=O)cc1[C@@H](NC(=O)[C@@H](NC(=O)C(F)(F)F)c1ccccc1)CC2` [Compound IVZ, N-(N-trifluoroacetyl-α-phenylglycyl)-desacetylthiocolchicine], the IC50 in data set [1] worked out at 6.1 nM; in data set [2], 7 nM; in data set [3], 12 nM; in data set [4], 4.1 nM; in data set [5], 2.2 nM.

For `COc1c(OC2CCCC2)cc2c(c1OC)-c1ccc(SC)c(=O)cc1[C@@H](NC(=O)C(F)(F)F)CC2` [Compound IZ, N-desacetyl-N-trifluoroacetyl-3-O-demethyl-3-O-cyclopentyl-thiocolchicine], the half-inhibitory concentration (IC50) in data set [1] amounted to 4.2 nM; in data set [2], 26 nM; in data set [3], 8 nM; in data set [4], 6.2 nM; in data set [5] it was 2.6 nM.

As to `CC(=O)O[C@H]1C(=O)[C@@]2(C)[C@H]([C@H](OC(=O)c3ccccc3)[C@]3(O)C[C@H](OC(=O)[C@H](O)[C@@H](NC(=O)c4ccccc4)c4ccccc4)C(C)=C1C3(C)C)[C@]1(OC(C)=O)CO[C@@H]1C[C@@H]2O` [Taxol, reference compound], the half-maximal inhibitory concentration (IC50) is 6.1 nM in data set [1]; 299 nM in data set [2]; 1.7 nM in data set [3]; 3.2 nM in data set [4]; 3.5 nM in data set [5].
